This series is described as follows: Determination of total drug concentration in rat brain (BBB penetration). In kind it is in vivo. The settings on record: male SD rat, 2 mg/kg IV infusion for 4 hours, brain collected at end of 4 hours. The procedure:
BB. Example 9: Determination of Total Drug Concentration in Rat Brain
In Vivo Experimental Procedures
Infuse male SD rat at 2 mg/kg dose for 4 hours through IV administration route. Collect brain tissues at the end of 4 hours.
Sample Preparation Procedures
Dilute brain tissue by adding homogenization solvent (1:4, w/v). Homogenize diluted brain tissue samples. Extract analyte by adding organic solvent (1:4, v/v) with spiked internal standard. Vortex and centrifuge the samples. Remove supernatant and dilute with HPLC compatible solvent (1:3, v/v).
Inject diluted extract into LC-MS/MS system using reversed phase high performance liquid chromatography coupled with electrospray ionization and selected reaction monitoring. Determine the total drug concentration in brain samples by quantitating against the standard curve prepared using the same matrix.
The following data provides blood brain barrier (BBB) penetration activity for a selection of inventive compounds where were directly compared to sotorasib and adagrasib (concentration in brain measured in ng/g).
Compounds that were measured as having a total concentration in the brain of at least 60 ng/g are indicated as “+”.

`C=CC(=O)N1[C@H](C)CN(c2nc(=O)n3c4c(c(-c5ccc(F)cc5F)c(C(F)(F)F)cc24)SC[C@@H](OCC)C3)C[C@@H]1C` (atropisomer, axis not shown) [Example 13-58]: the BBB activity result is recorded as “− (Compounds that did not meet this threshold are indicated as “−”)”.

Turning to `C=CC(=O)N1[C@H](C)CN(c2nc(=O)n3c4c(c(-c5ccc(F)cc5F)c(C(F)(F)F)cc24)SC[C@@H]3COCOC)C[C@@H]1C` (atropisomer, axis not shown) [Example 13-60], the BBB activity result is “− (Compounds that did not meet this threshold are indicated as “−”)”.

As for `C=CC(=O)N1[C@H](C)CN(c2nc(=O)n3c4c(c(-c5cc(Cl)c(F)cc5F)c(C(F)(F)F)cc24)SC[C@@H]3COCOC)C[C@@H]1C` (atropisomer, axis not shown) [Example 13-62], the BBB activity result is “− (Compounds that did not meet this threshold are indicated as “−”)”.

For the compound `C=CC(=O)N1[C@H](C)CN(c2nc(=O)n3c4c(c(-c5cc(Br)c(F)cc5F)c(C(F)(F)F)cc24)SC[C@@H](OC)C3)C[C@@H]1C` (atropisomer, axis not shown) [Example 13-70], the BBB activity entry is “− (Compounds that did not meet this threshold are indicated as “−”)”.

For `C=CC(=O)N1C[C@H](C)N(c2nc(=O)n3c4c(c(-c5cc(Cl)c(F)cc5F)c(C(F)(F)F)cc24)SC[C@@H]3CN2C[C@@H]3C[C@H]2CO3)C[C@H]1C` (atropisomer, axis not shown) [Example 13-71], the BBB activity entry is on record as “− (Compounds that did not meet this threshold are indicated as “−”)”.

As for `C=CC(=O)N1[C@H](C)CN(c2nc(=O)n3c4c(c(-c5cc(Cl)c(F)cc5F)c(C(F)(F)F)cc24)SC[C@@H](Nc2ncccn2)C3)C[C@@H]1C` (atropisomer, axis not shown) [Example 13-73], the BBB activity entry is recorded as “− (Compounds that did not meet this threshold are indicated as “−”)”.

On to `C=CC(=O)N1[C@H](C)CN(c2nc(=O)n3c4c(c(-c5cc(Cl)c(F)cc5F)c(C(F)(F)F)cc24)SC[C@@H](OCC)C3)C[C@@H]1C` (atropisomer, axis not shown) [Example 13-77], for which the BBB activity result is recorded as “− (Compounds that did not meet this threshold are indicated as “−”)”.

In the case of `C=CC(=O)N1CCN(c2nc(=O)n3c4c(c(-c5cc(Cl)c(F)cc5F)c(C(F)(F)F)cc24)SC[C@@H]3COC)CC1` [Example 13-5], the BBB activity entry is listed as “+ (Compounds that were measured as having a total concentration in the brain of at least 60 ng/g are indicated as “+”)”.

Regarding `C=C(F)C(=O)N1[C@H](C)CN(c2nc(=O)n3c4c(c(-c5ccc(F)cc5)c(C(F)(F)F)cc24)SC[C@@H](OC)C3)C[C@@H]1C` [Example 13-9], the BBB activity entry is recorded as “+ (Compounds that were measured as having a total concentration in the brain of at least 60 ng/g are indicated as “+”)”.

Regarding `C=CC(=O)N1[C@H](C)CN(c2nc(=O)n3c4c(c(-c5ccc(F)cc5)c(C(F)(F)F)cc24)SC[C@@H]3COC)C[C@@H]1C` [Example 13-10], the BBB activity result is “+ (Compounds that were measured as having a total concentration in the brain of at least 60 ng/g are indicated as “+”)”.

On to `C=CC(=O)N1[C@H](C)CN(c2nc(=O)n3c4c(c(-c5ccc(F)cc5F)c(C(F)(F)F)cc24)SC[C@@H]3COC)C[C@@H]1C` [Example 13-13], for which the BBB activity entry is “+ (Compounds that were measured as having a total concentration in the brain of at least 60 ng/g are indicated as “+”)”.

Turning to `C=CC(=O)N1CCN(c2nc(=O)n3c4c(c(-c5ccc(F)cc5F)c(C(F)(F)F)cc24)SC[C@@H]3COC)CC1` [Example 13-14], the BBB activity entry is given as “+ (Compounds that were measured as having a total concentration in the brain of at least 60 ng/g are indicated as “+”)”.

On to `C=CC(=O)N1CCN(c2nc(=O)n3c4c(c(-c5c(C)cc(F)cc5F)c(C(F)(F)F)cc24)SC[C@@H]3COC)CC1` [Example 13-16], for which the BBB activity entry is given as “+ (Compounds that were measured as having a total concentration in the brain of at least 60 ng/g are indicated as “+”)”.

For `C=CC(=O)N1C[C@H](C)N(c2nc(=O)n3c4c(c(-c5ccc(F)cc5F)c(Cl)cc24)SCC3)C[C@H]1C` [Example 13-18], the BBB activity result is listed as “+ (Compounds that were measured as having a total concentration in the brain of at least 60 ng/g are indicated as “+”)”.

Regarding `C=CC(=O)N1[C@H](C)CN(c2nc(=O)n3c4c(c(-c5cc(I)c(F)cc5F)c(C(F)(F)F)cc24)SC[C@@H]3COC)C[C@@H]1C` [Example 13-19], the BBB activity entry is listed as “+ (Compounds that were measured as having a total concentration in the brain of at least 60 ng/g are indicated as “+”)”.

As for `C=CC(=O)N1[C@H](C)CN(c2nc(=O)n3c4c(c(-c5ccccc5)c(C(F)(F)F)cc24)SC[C@@H]3COC)C[C@@H]1C` [Example 13-20], the BBB activity entry was “+ (Compounds that were measured as having a total concentration in the brain of at least 60 ng/g are indicated as “+”)”.

Consider `C=CC(=O)N1CCN(c2nc(=O)n3c4c(c(-c5ccc(F)cc5F)c(C(F)(F)F)cc24)SCC3)[C@@H](C)C1` [Example 13-21], for which the BBB activity entry is listed as “+ (Compounds that were measured as having a total concentration in the brain of at least 60 ng/g are indicated as “+”)”.

`C=CC(=O)N1[C@H](C)CN(c2nc(=O)n3c4c(c(-c5ccc(F)cc5)c(C(F)(F)F)cc24)SC[C@@H]3CN2CCN(C3CC3)CC2)C[C@@H]1C` [Example 13-22]: the BBB activity entry is given as “+ (Compounds that were measured as having a total concentration in the brain of at least 60 ng/g are indicated as “+”)”.

For `C=CC(=O)N1C[C@H](C)N(c2nc(=O)n3c4c(c(-c5cc(Br)c(F)cc5F)c(C(F)(F)F)cc24)SCC2(COC2)C3)C[C@H]1C` [Example 13-23], the BBB activity result is on record as “+ (Compounds that were measured as having a total concentration in the brain of at least 60 ng/g are indicated as “+”)”.

Turning to `C=CC(=O)N1[C@H](C)CN(c2nc(=O)n3c4c(c(-c5cc(Cl)c(F)cc5F)c(C(F)(F)F)cc24)SC[C@@H](OC)C3)C[C@@H]1C` [Example 13-24], the BBB activity entry was “+ (Compounds that were measured as having a total concentration in the brain of at least 60 ng/g are indicated as “+”)”.

For the compound `C=CC(=O)N1CCN(c2nc(=O)n3c4c(c(-c5ccc(F)c(Cl)c5)c(C(F)(F)F)cc24)SC[C@@H](OC)C3)CC1` [Example 13-25], the BBB activity entry was “+ (Compounds that were measured as having a total concentration in the brain of at least 60 ng/g are indicated as “+”)”.

With `C=CC(=O)N1[C@H](C)CN(c2nc(=O)n3c4c(c(-c5ccc(F)cc5F)c(C(F)(F)F)cc24)SC[C@@H]3CN2CCN(C3CC3)CC2)C[C@@H]1C` [Example 13-26], the BBB activity result is recorded as “+ (Compounds that were measured as having a total concentration in the brain of at least 60 ng/g are indicated as “+”)”.

Consider `C=CC(=O)N1CCN(c2nc(=O)n3c4c(c(-c5cc(Cl)c(F)cc5F)c(Cl)cc24)SC[C@@H]3CN2CCN(C3CC3)CC2)[C@@H](C)C1` [Example 13-27], for which the BBB activity result is “+ (Compounds that were measured as having a total concentration in the brain of at least 60 ng/g are indicated as “+”)”.

For the compound `C=CC(=O)N1[C@H](C)CN(c2nc(=O)n3c4c(c(-c5cc(Cl)c(F)cc5F)c(C(F)(F)F)cc24)SC[C@@H]3CN2CCN(C3CC3)CC2)C[C@@H]1C` [Example 13-28], the BBB activity result is “+ (Compounds that were measured as having a total concentration in the brain of at least 60 ng/g are indicated as “+”)”.

Take `C=CC(=O)N1C[C@H](C)N(c2nc(=O)n3c4c(c(-c5ccc(F)cc5F)c(C(F)(F)F)cc24)SC[C@@H]3CN2CCN(C3CC3)CC2)C[C@H]1C` [Example 13-29]: the BBB activity entry is listed as “+ (Compounds that were measured as having a total concentration in the brain of at least 60 ng/g are indicated as “+”)”.

For `C=CC(=O)N1CCN(c2nc(=O)n3c4c(c(-c5cc(Cl)c(F)cc5F)c(C(F)(F)F)cc24)SC[C@@H]3CN2CCN(C3CC3)CC2)CC1` [Example 13-30], the BBB activity result is reported as “+ (Compounds that were measured as having a total concentration in the brain of at least 60 ng/g are indicated as “+”)”.

On to `C=CC(=O)N1C[C@H](C)N(c2nc(=O)n3c4c(c(-c5cc(Cl)c(F)cc5F)c(C(F)(F)F)cc24)SCC2(COC2)C3)C[C@H]1C` [Example 13-31], for which the BBB activity entry is “+ (Compounds that were measured as having a total concentration in the brain of at least 60 ng/g are indicated as “+”)”.

With `C=CC(=O)N1CC2C(=O)N(C)c3cnc4c(F)c(-c5c(O)cccc5F)c(Cl)cc4c3N2C[C@H]1C` (some centres unmarked) [Example 13-32], the BBB activity entry is listed as “+ (Compounds that were measured as having a total concentration in the brain of at least 60 ng/g are indicated as “+”)”.

As to `C=CC(=O)N1CCN(c2nc(=O)n3c4c(c(-c5ccc(F)cc5)c(C(F)(F)F)cc24)SC[C@@H]3CN2CCN(C3CC3)CC2)CC1` [Example 13-33], the BBB activity entry was “+ (Compounds that were measured as having a total concentration in the brain of at least 60 ng/g are indicated as “+”)”.

For the compound `C=CC(=O)N1C[C@H](C)N(c2nc(=O)n3c4c(c(-c5cc(Cl)c(F)cc5F)c(C(F)(F)F)cc24)SCC2(CCOCC2)C3)C[C@H]1C` [Example 13-34], the BBB activity result is “+ (Compounds that were measured as having a total concentration in the brain of at least 60 ng/g are indicated as “+”)”.

Take `C=CC(=O)N1CCN(c2nc(=O)n3c4c(c(-c5ccc(F)cc5F)c(C(F)(F)F)cc24)SC[C@@H]3COC)[C@@H](C)C1` [Example 13-35]: the BBB activity result was “+ (Compounds that were measured as having a total concentration in the brain of at least 60 ng/g are indicated as “+”)”.

`C=CC(=O)N1[C@H](C)CN(c2nc(=O)n3c4c(c(-c5cc(Br)c(F)cc5F)c(C(F)(F)F)cc24)SCC2(COC2)C3)C[C@@H]1C` [Example 13-36]: the BBB activity result is recorded as “+ (Compounds that were measured as having a total concentration in the brain of at least 60 ng/g are indicated as “+”)”.

These data come from patent US20230107642A1 (Erasca, Inc., priority 2020, published 2023).
